# pIC50: −log10 of the molar value.
# Legend:
# HRAS wild-type protein = HRAS wild-type protein (Homo sapiens, UniProt P01112); test: Binding to HRAS by surface plasmon resonance (SPR), KD and KD ratio to KRAS; details: ratio of KD value for HRAS wild-type protein to KD value for KRAS (SPR)
# Summary of the method: (§1)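 Captured GDP-RAS (~100–300 RU) was exposed to increasing compound concentrations, 75 s per step, in running buffer with 10 µM GDP, 10 mM MgCl2 and 4% DMSO at pH 7.4.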
# [1] = molecular target: GDP-bound NRAS wild-type protein (Homo sapiens, UniProt P01111); test: Binding to NRAS by surface plasmon resonance (SPR), KD and KD ratio to KRAS; details: ratio of KD value for GDP-bound NRAS wild-type protein to KD value for KRAS (SPR)
# Summary of the method: as §1
# [2] = tested on: human lung cancer strain NCI-H441; type: cell-based
# Summary of the method: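 Step one: dispense the test compound in serial DMSO dilutions. Step three: add the reagent and measure […].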
# HRAS wild-type protein, sequence (P01112 whole entry): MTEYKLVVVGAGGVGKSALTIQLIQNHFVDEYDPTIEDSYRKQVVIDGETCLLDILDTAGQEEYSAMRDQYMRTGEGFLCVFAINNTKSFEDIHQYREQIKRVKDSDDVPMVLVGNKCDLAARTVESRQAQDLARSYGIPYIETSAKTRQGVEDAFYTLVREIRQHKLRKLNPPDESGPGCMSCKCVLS
# GDP-bound NRAS wild-type protein, sequence (P01111 whole entry): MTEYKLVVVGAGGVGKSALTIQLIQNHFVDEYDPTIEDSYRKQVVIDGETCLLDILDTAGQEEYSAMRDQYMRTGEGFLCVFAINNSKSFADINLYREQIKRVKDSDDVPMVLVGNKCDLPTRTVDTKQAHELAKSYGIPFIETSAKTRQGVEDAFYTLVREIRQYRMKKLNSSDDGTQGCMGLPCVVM
SMILES,HRAS /KRAS (HRAS wild-type protein),NRAS /KRAS [1],pIC50 [2]
CCO[C@@H]1C[C@H]2C(=O)NC3(CC(C)(C)C3)C(=O)N(C)[C@@H](C3CCCC3)C(=O)N(C)[C@H](CC)CC(=O)N(C)[C@@H](CC3CC3)C(=O)N[C@@H]([C@@H](C)CC)C(=O)N(C)CC(=O)N(C)[C@H]3C/C=C\CCN(C3=O)[C@@H](Cc3ccc(C(F)(F)F)cc3)C(=O)N(C)CC(=O)N[C@@H](CCc3cc(F)c(C(F)(F)F)c(F)c3)C(=O)N2C1 [PP1629],B (a compound having 3 or more and less than 10 is denoted as B),B (a compound having 3 or more and less than 10 is denoted as B),7.68
CCO[C@@H]1C[C@H]2C(=O)NC3(CCC3)C(=O)N(C)[C@@H](C(CC)CC)C(=O)N(C)[C@H](CC)CC(=O)N(C)[C@@H](CC3CC3)C(=O)N[C@@H]([C@@H](C)CC)C(=O)N(C)CC(=O)N(C)[C@H]3C/C=C\CCN(C3=O)[C@@H](Cc3ccc(C(F)(F)F)cc3)C(=O)N(C)CC(=O)N[C@@H](CCc3cc(F)c(C(F)(F)F)c(F)c3)C(=O)N2C1 [PP1630],A (a compound having 10 or more and less than 20 is denoted as A),A (a compound having 10 or more and less than 20 is denoted as A),6.84
CCO[C@@H]1C[C@H]2C(=O)NC3(CCC3)C(=O)N(C)[C@@H](C3CCCC3)C(=O)N(C)[C@H](CC)CC(=O)N(C)[C@@H](CC3CC3)C(=O)N[C@@H]([C@@H](C)CC)C(=O)N(C)CC(=O)N(C)[C@H]3C/C=C\CCN(C3=O)C(Cc3ccc(C(F)(F)F)cc3)C(=O)N(C)CC(=O)N[C@@H](CCc3cc(F)c(C(F)(F)F)c(F)c3)C(=O)N2C1 (stereo partly drawn) [PP1631],B (a compound having 3 or more and less than 10 is denoted as B),A (a compound having 10 or more and less than 20 is denoted as A),7.75
CCO[C@@H]1C[C@H]2C(=O)NC3(CC(F)(F)C3)C(=O)N(C)[C@@H](C(CC)CC)C(=O)N(C)[C@H](CC)CC(=O)N(C)[C@@H](CC3CC3)C(=O)N[C@@H]([C@@H](C)CC)C(=O)N(C)CC(=O)N(C)[C@H]3C/C=C\CCN(C3=O)[C@@H](Cc3ccc(C(F)(F)F)cc3)C(=O)N(C)CC(=O)N[C@@H](CCc3cc(F)c(C(F)(F)F)c(F)c3)C(=O)N2C1 [PP1632],A (a compound having 10 or more and less than 20 is denoted as A),A (a compound having 10 or more and less than 20 is denoted as A),6.94
CCO[C@@H]1C[C@H]2C(=O)NC3(CC(F)(F)C3)C(=O)N(C)[C@@H](C3CCCC3)C(=O)N(C)[C@H](CC)CC(=O)N(C)[C@@H](CC3CC3)C(=O)N[C@@H]([C@@H](C)CC)C(=O)N(C)CC(=O)N(C)[C@H]3C/C=C\CCN(C3=O)[C@@H](Cc3ccc(C(F)(F)F)cc3)C(=O)N(C)CC(=O)N[C@@H](CCc3cc(F)c(C(F)(F)F)c(F)c3)C(=O)N2C1 [PP1633],B (a compound having 3 or more and less than 10 is denoted as B),A (a compound having 10 or more and less than 20 is denoted as A),7.82
CCO[C@@H]1C[C@H]2C(=O)NC3(CC(C)(C)C3)C(=O)N(C)[C@@H](C(CC)CC)C(=O)N(C)[C@H](C3CCC3)CC(=O)N(C)[C@@H](CC3CC3)C(=O)N[C@@H]([C@@H](C)CC)C(=O)N(C)CC(=O)N(C)[C@H]3C/C=C\CCN(C3=O)[C@@H](Cc3ccc(C(F)(F)F)cc3)C(=O)N(C)CC(=O)N[C@@H](CCc3cc(F)c(C(F)(F)F)c(F)c3)C(=O)N2C1 [PP1634],A (a compound having 10 or more and less than 20 is denoted as A),A (a compound having 10 or more and less than 20 is denoted as A),6.84
